Results: ChEMBL document CHEMBL4680169, “Synthesis and bioevaluation of new vascular-targeting and anti-angiogenic thieno[2,3-d]pyrimidin-4(3H)-ones” (Eur J Med Chem, 2020)
Activity calls are given as the source filed them. The rule behind the calls is not given here.

Tests used:
KB-V1 = test: cells; assay type: functional, cell-based; details: Homo sapiens, KB-V1, 72 h
Description: Cytotoxicity against multidrug resistant human KB-V1 cells assessed as inhibition of cell growth after 72 hrs by MTT assay

HCT-116 [1] = test: cells; assay type: functional, cell-based; details: Homo sapiens, HCT-116, 72 h
Description: Cytotoxicity against human HCT-116 p53 mutant cells assessed as inhibition of cell growth after 72 hrs by MTT assay

HCT-116 [2] = test: cells; assay type: functional, cell-based; details: Homo sapiens, HCT-116, 72 h; remark: listed apart in the source
Description: Cytotoxicity against wild type human HCT-116 cells assessed as inhibition of cell growth after 72 hrs by MTT assay

518A2 = test: cells; assay type: functional, cell-based; details: Homo sapiens, 518A2, 72 h
Description: Cytotoxicity against human 518A2 cells assessed as inhibition of cell growth after 72 hrs by MTT assay

EA.hy 926 [3] = test: cells; assay type: functional, cell-based; details: Homo sapiens, EA.hy 926, 72 h
Description: Cytotoxicity against human EA.hy 926 cells assessed as inhibition of cell growth after 72 hrs by MTT assay

Tubulin (Homo sapiens) [4] = biological target: T1, Tubulin (Homo sapiens) (UniProt P68371+Q9H4B7+P0DPH7+P68366+Q13509+Q71U36+P04350+Q3ZCM7+P07437+P68363+Q9BQE3+Q6PEY2+Q13885+Q9BVA1+Q9BUF5); test: Induction of microtubule cytoskeleton disruption in human EA.hy926 cells at 50 nM assessed as mitotic catastrophe measured after 24 hrs by DAPI staining based fluorescence microscopic analysis; assay type: cell-based; details: EA.hy 926
Tubulin (Homo sapiens) [5] = biological target: T1, Tubulin (Homo sapiens); test: Induction of microtubule cytoskeleton disruption in human EA.hy926 cells at 25 nM measured after 24 hrs by DAPI staining based fluorescence microscopic analysis; assay type: cell-based; details: EA.hy 926
cells = assay type: ADME, cell-based; details: Homo sapiens, HDFa, 72 h
Description: Cytotoxicity against human HDfa cells assessed as inhibition of cell growth after 72 hrs by MTT assay

EA.hy 926 [6] = test: Induction of F-actin cytoskeleton disruption in human EA.hy926 cells at 50 nM assessed as formation of actin stress fibers measured after 3 hrs by DAPI staining based fluorescence microscopic analysis; assay type: cell-based
Sus scrofa = species: Sus scrofa; test: Inhibition of porcine brain tubulin polymerization at 10 uM measured at 20 sec interval for 2 hrs by turbidometric method
EA.hy 926 [7] = test: Cell cycle arrest in human EA.hy926 cells assessed as accumulation at G2/M phase at 25 to 70 uM after 24 hrs by propidium iodide staining based flow cytometric analysis; assay type: functional; details: dose 25-70 µM
EA.hy 926 [8] = test: Cell cycle arrest in human EA.hy926 cells assessed as accumulation at sub-G1 phase after 24 hrs by propidium iodide staining based flow cytometric analysis; assay type: functional
[9] = biological target: CDK1/Cyclin A (Homo sapiens) (UniProt P06493+P20248); test: Inhibition of full length recombinant human CDK1/cyclin A2 expressed in baculovirus infected sf9 cells using histone H1 as substrate incubated for 15 mins in presence of ATP by ADP-Glo assay
CDK1/Cyclin A (Homo sapiens), sequence (P06493 whole entry, looked up): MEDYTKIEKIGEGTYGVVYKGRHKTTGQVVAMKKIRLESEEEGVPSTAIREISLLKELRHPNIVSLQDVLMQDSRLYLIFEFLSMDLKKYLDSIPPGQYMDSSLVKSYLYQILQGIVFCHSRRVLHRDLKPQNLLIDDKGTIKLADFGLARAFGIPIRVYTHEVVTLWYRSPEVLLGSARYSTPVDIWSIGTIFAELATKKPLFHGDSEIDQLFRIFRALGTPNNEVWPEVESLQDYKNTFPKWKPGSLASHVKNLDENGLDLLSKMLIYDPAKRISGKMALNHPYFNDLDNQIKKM
CDK1/Cyclin A (Homo sapiens), sequence (P20248 whole entry, looked up): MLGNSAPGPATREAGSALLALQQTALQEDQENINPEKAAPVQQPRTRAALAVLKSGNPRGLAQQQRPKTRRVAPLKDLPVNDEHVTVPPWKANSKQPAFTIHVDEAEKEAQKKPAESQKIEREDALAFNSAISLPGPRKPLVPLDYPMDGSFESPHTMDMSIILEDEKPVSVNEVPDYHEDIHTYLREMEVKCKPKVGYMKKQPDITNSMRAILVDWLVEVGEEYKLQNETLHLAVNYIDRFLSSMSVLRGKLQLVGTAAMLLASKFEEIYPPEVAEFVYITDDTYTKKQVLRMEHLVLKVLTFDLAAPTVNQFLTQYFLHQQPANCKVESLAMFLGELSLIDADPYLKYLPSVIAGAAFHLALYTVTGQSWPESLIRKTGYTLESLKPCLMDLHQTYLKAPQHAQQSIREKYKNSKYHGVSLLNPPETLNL

EA.hy 926 [10] = test: Vascular disruptive effect in human EA.hy926 cells at 250 nM incubated for 12 hrs by matrigel-based MTT assay; assay type: functional, cell-based
Chorioallantoic membrane [11] = test: Vascular disruptive effect in chicken fertilized egg chorioallantoic membrane at 5 nmol incubated for 24 hrs by CAM assay; assay type: functional, tissue-based; details: Gallus gallus
EA.hy 926 [12] = test: Antiangiogenic activity in human EA.hy926 cells assessed as reduction in tube formation at 150 nM incubated for 6 hrs by matrigel-based MTT assay; assay type: functional, cell-based
Chorioallantoic membrane [13] = test: Antiangiogenic activity in chicken fertilized egg chorioallantoic membrane assessed as reduction in tube formation at 5 nmol incubated for 6 to 24 hrs by CAM assay; assay type: functional, tissue-based; details: Gallus gallus, time 6-24 hrs
Chorioallantoic membrane [14] = test: Vascular disruptive effect in chicken fertilized egg chorioallantoic membrane at 15 nmol incubated for 24 hrs by CAM assay; assay type: functional, tissue-based; details: Gallus gallus
Chorioallantoic membrane [15] = test: Vascular disruptive effect in chicken fertilized egg chorioallantoic membrane at 15 nmol incubated for 6 hrs by CAM assay; assay type: functional, tissue-based; details: Gallus gallus
Danio rerio [16] = species: Danio rerio; test: Antiangiogenic activity in zebrafish embryo assessed as reduction in SIV at 250 nM incubated for 48 hrs by fluorescence microscopic analysis; assay type: functional; set-up: scale not given: the % may be the effect or the level left
Danio rerio [17] = species: Danio rerio; test: Antiangiogenic activity in zebrafish embryo assessed as reduction in tube formation at 500 nM incubated for 48 hrs by fluorescence microscopic analysis; assay type: functional; set-up: scale not given: the % may be the effect or the level left

IC50 (KB-V1)	IC50 (HCT-116 [1])	IC50 (HCT-116 [2])	IC50 (518A2)	IC50 (EA.hy 926 [3])	Structure (SMILES)	further results
300 nM	300 nM	800 nM	200 nM	300 nM	COc1cc(-c2nc3sc4c(c3c(=O)[nH]2)CCCCC4)cc(Br)c1OC	
700 nM	800 nM	300 nM	700 nM	200 nM	COc1cc(-c2nc3sc4c(c3c(=O)[nH]2)CCCCC4)cc(Cl)c1OC	
600 nM	200 nM	300 nM	200 nM	200 nM	COc1cc(-c2nc3sc4c(c3c(=O)[nH]2)CCCCC4)cc(I)c1OC	
> 100000 nM	> 100000 nM	> 100000 nM	> 100000 nM	100000 nM	COc1cc(-c2nc3sc4c(c3c(=O)[nH]2)CCNC4)cc(OC)c1OC	
2000 nM	7400 nM	10600 nM	9300 nM	11500 nM	COc1cc(-c2nc3sc4c(c3c(=O)[nH]2)CCNC4)cc(Br)c1OC	
17000 nM	10800 nM	> 100000 nM	16400 nM	6300 nM	COc1cc(-c2nc3sc4c(c3c(=O)[nH]2)CCNC4)cc(Cl)c1OC	
2800 nM	500 nM	400 nM	500 nM	900 nM	COc1cc(-c2nc3sc4c(c3c(=O)[nH]2)CCN(C(C)=O)C4)cc(Br)c1OC	
6500 nM	3600 nM	6900 nM	5700 nM	5400 nM	O=c1[nH]c(-c2cc(F)cc(F)c2)nc2sc3c(c12)CCNC3	
600 nM	400 nM	200 nM	300 nM	100 nM	COc1cc(-c2nc3sc4c(c3c(=O)[nH]2)CCN(C(C)=O)C4)cc(I)c1OC	inhibition (Sus scrofa): Active
2500 nM	800 nM	1000 nM	1400 nM	1000 nM	COc1cc(-c2nc3sc4c(c3c(=O)[nH]2)CCNC4)cc(I)c1OC	inhibition (Sus scrofa): Active
6700 nM	2200 nM	4000 nM	3800 nM	3800 nM	COc1ccc(-c2nc3sc4c(c3c(=O)[nH]2)CCNC4)cc1	
300 nM	1000 nM	500 nM	400 nM	400 nM	COc1cc(-c2nc3sc4c(c3c(=O)[nH]2)CCCC4)cc(Cl)c1OC	
6200 nM	1500 nM	1500 nM	5800 nM	1000 nM	COc1c(Br)cc(-c2nc3sc4c(c3c(=O)[nH]2)CCNC4)cc1Br	
1200 nM	700 nM	2000 nM	200 nM	400 nM	C=CC(=O)N1CCc2c(sc3nc(-c4cc(I)c(OC)c(OC)c4)[nH]c(=O)c23)C1	inhibition (Sus scrofa): Active
100 nM	100 nM	200 nM	100 nM	200 nM	COc1cc(-c2nc3sc4c(c3c(=O)[nH]2)CCCC4)cc(I)c1OC	Activity (Tubulin (Homo sapiens) [4]): Active; Activity (Tubulin (Homo sapiens) [5]): inactive; inhibition (Sus scrofa): Active; IC50 (cells): > 100 µM; Activity (EA.hy 926 [6]): Active; Activity (EA.hy 926 [7]): Active; Activity (EA.hy 926 [8]): Dose-dependent effect; inhibition [9]: Active; Activity (EA.hy 926 [10]): Active; Activity (Chorioallantoic membrane [15]): Active; Activity (EA.hy 926 [12]): Active; Activity (Chorioallantoic membrane [13]): Active; Activity (Danio rerio [16]): 18%; Activity (Danio rerio [17]): 28%
300 nM	500 nM	400 nM	300 nM	300 nM	COc1cc(-c2nc3sc4c(c3c(=O)[nH]2)CCCC4)cc(Br)c1OC	

More lines, now with the values behind:

Structure (SMILES)	IC50 (KB-V1)	IC50 (HCT-116 [1])	IC50 (HCT-116 [2])	IC50 (518A2)	IC50 (EA.hy 926 [3])	further results
N#Cc1cccc(-c2nc3sc4c(c3c(=O)[nH]2)CCCCC4)c1	18200 nM	1000 nM	3800 nM	9400 nM	13100 nM	
CCOC(=O)N1CCc2c(sc3nc(-c4cc(Br)c(OC)c(OC)c4)[nH]c(=O)c23)C1	300 nM	500 nM	400 nM	500 nM	200 nM	
COc1cc(-c2nc(O)c3c4c(sc3n2)CCCC4)cc(OC)c1OC	200 nM	300 nM	5500 nM	200 nM	400 nM	Activity (Tubulin (Homo sapiens) [4]): Active; Activity (Tubulin (Homo sapiens) [5]): inactive; IC50 (cells): > 100 µM; Activity (EA.hy 926 [6]): inactive
COc1c(Br)cc(-c2nc3sc4c(c3c(=O)[nH]2)CCCCC4)cc1Br	1400 nM	1000 nM	900 nM	400 nM	1000 nM	
O=c1[nH]c(-c2cccc(Br)c2)nc2sc3c(c12)CCNC3	2200 nM	1400 nM	1600 nM	1700 nM	1600 nM	
CCOC(=O)N1CCc2c(sc3nc(-c4cccc(C#N)c4)[nH]c(=O)c23)C1	7100 nM	4300 nM	4900 nM	4100 nM	12500 nM	
CCOC(=O)N1CCc2c(sc3nc(-c4cccnc4)[nH]c(=O)c23)C1	35200 nM	39100 nM	32500 nM	80000 nM	100000 nM	
O=c1[nH]c(-c2cc(F)cc(F)c2)nc2sc3c(c12)CCCCC3	> 100000 nM	> 100000 nM	> 100000 nM	> 100000 nM	> 100000 nM	
C=CC(=O)N1CCc2c(sc3nc(-c4cc(Br)c(OC)c(OC)c4)[nH]c(=O)c23)C1	1900 nM	4600 nM	4300 nM	700 nM	900 nM	
N#Cc1cccc(-c2nc3sc4c(c3c(=O)[nH]2)CCCC4)c1	1900 nM	200 nM	700 nM	300 nM	1200 nM	
CCOC(=O)N1CCc2c(sc3nc(-c4cc(F)cc(F)c4)[nH]c(=O)c23)C1	5300 nM	4200 nM	1600 nM	5200 nM	4000 nM	
CCOC(=O)N1CCc2c(sc3nc(-c4cc(I)c(OC)c(OC)c4)[nH]c(=O)c23)C1	100 nM	100 nM	300 nM	100 nM	100 nM	Activity (Tubulin (Homo sapiens) [4]): Active; Activity (Tubulin (Homo sapiens) [5]): inactive; inhibition (Sus scrofa): Active; IC50 (cells): 13.1 µM; Activity (EA.hy 926 [6]): Active; Activity (EA.hy 926 [7]): Active; Activity (EA.hy 926 [8]): Dose-dependent effect; inhibition [9]: Active; Activity (EA.hy 926 [10]): Active; Activity (Chorioallantoic membrane [11]): Active; Activity (EA.hy 926 [12]): Active; Activity (Chorioallantoic membrane [13]): Active; Activity (Chorioallantoic membrane [14]): inactive
CCOC(=O)N1CCc2c(sc3nc(-c4ccc(OC)c(O)c4)[nH]c(=O)c23)C1	2200 nM	5600 nM	1800 nM	2300 nM	4500 nM	
O=c1[nH]c(-c2cccc(Br)c2)nc2sc3c(c12)CCCCC3	> 100000 nM	> 100000 nM	> 100000 nM	> 100000 nM	> 100000 nM	
COc1c(Br)cc(-c2nc3sc4c(c3c(=O)[nH]2)CCCC4)cc1Br	700 nM	700 nM	800 nM	2400 nM	1000 nM	
COc1ccc(/C=C\c2cc(OC)c(OC)c(OC)c2)cc1O [COMBRETASTATIN A4]	4 nM	2 nM	3 nM	20 nM	10 nM	Activity (Tubulin (Homo sapiens) [5]): Active; IC50 (cells): > 100 µM; Activity (EA.hy 926 [6]): Active; Activity (EA.hy 926 [8]): Dose-dependent effect; Activity (Chorioallantoic membrane [11]): Active
CCOC(=O)N1CCc2c(sc3nc(-c4cc(OC)c(OC)c(OC)c4)[nH]c(=O)c23)C1	800 nM	500 nM	600 nM	200 nM	200 nM	
